Assay results: ChEMBL document CHEMBL5331131, “Discovery of Acyl-Indole Derivatives as Pan-Serotype Dengue Virus NS4B Inhibitors” (J Med Chem, 2023)
In brackets after ≈: the same amount, converted by molar mass.

Tests used:
[1] = Oral bioavailability in CD-1 mouse at 10 mg/kg measured for 0.5 to 24 hrs by LC-MS/MS analysis; assay type: ADME, organism-based; conditions: in vivo, time 0.5-24 hrs
[2] = Metabolic stability in human hepatocytes assessed as intrinsic clearance measured per million cells incubated upto 120 mins by MS analysis; assay type: ADME, cell-based, Hepatocyte; conditions: read-out: CLH
dengue virus type 2 [3] = experiment: In vivo antiviral activity against DENV-2/RL infected in AG129 mouse assessed as viral load reduction in plasma administered at 30 mg/kg, po bid for 3 days; assay type: functional; conditions: time 3 day
[4] = AUC last in Sprague-Dawley rat at 10 mg/kg, po measured upto 24 to 48 hrs by LC-MS/MS analysis; assay type: ADME, organism-based; parameters: time upper 48 hrs, dose 10 mg/kg, time lower 24 hrs, route po; conditions: in vivo
[5] = Microsomal stability in mouse liver microsomes assessed as intrinsic clearance preincubated for 5 mins followed by NADPH addition measured upto 60 mins by LC-MS/MS analysis; assay type: ADME, Microsome; conditions: time < 65 min, read-out: CLH
[6] = Cmax in CD-1 mouse at 30 mg/kg, po measured for 0.5 to 24 hrs by LC-MS/MS analysis; assay type: ADME, organism-based; parameters: time upper 24 hrs, dose 30 mg/kg, time lower 0.5 hrs, route po; conditions: in vivo
[7] = AUC last in CD-1 mouse at 3 mg/kg, po measured for 0.5 to 24 hrs by LC-MS/MS analysis; assay type: ADME, organism-based; parameters: time upper 24 hrs, time lower 0.5 hrs, dose 3 mg/kg, route po; conditions: in vivo
dengue virus type 3 = experiment: Antiviral activity against DENV-3 H87 infected in african green monkey Vero cells incubated for 24 hrs measured after 3 days post infection; assay type: functional, organism-based
[8] = Cmax in Sprague-Dawley rat at 10 mg/kg, po measured upto 24 to 48 hrs by LC-MS/MS analysis; assay type: ADME, organism-based; parameters: time upper 48 hrs, dose 10 mg/kg, time lower 24 hrs, route po; conditions: in vivo
[9] = Kinetic solubility of the compound in aqueous buffer at pH 7.4 measured after 4 hrs by UPLC/UV analysis; assay type: physicochemical; conditions: read-out: Kinetic_solubility
[10] = AUC last in CD-1 mouse at 30 mg/kg, po measured for 0.5 to 24 hrs by LC-MS/MS analysis; assay type: ADME, organism-based; parameters: time upper 24 hrs, time lower 0.5 hrs, dose 30 mg/kg, route po; conditions: in vivo
[11] = Microsomal stability in rat liver microsomes assessed as intrinsic clearance preincubated for 5 mins followed by NADPH addition measured upto 60 mins by LC-MS/MS analysis; assay type: ADME, Microsome; conditions: time < 65 min, read-out: CLH
[12] = Cmax in CD-1 mouse at 10 mg/kg, po measured for 0.5 to 24 hrs by LC-MS/MS analysis; assay type: ADME, organism-based; parameters: dose 10 mg/kg, time 0.5-24 hrs, route po; conditions: in vivo
[13] = Oral bioavailability in CD-1 mouse at 3 mg/kg measured for 0.5 to 24 hrs by LC-MS/MS analysis; assay type: ADME, organism-based; conditions: in vivo, time 0.5-24 hrs
[14] = Clearance in Sprague-Dawley rat at 2.5 mg/kg, iv measured upto 24 hrs by LC-MS/MS analysis; assay type: ADME, organism-based; conditions: in vivo
dengue virus type 1 = experiment: Antiviral activity against DENV-1 TC974#666 infected in african green monkey Vero cells incubated for 24 hrs measured after 3 days post infection; assay type: functional, organism-based; conditions: TC974#666, Vero
dengue virus type 4 = experiment: Antiviral activity against DENV-4 H241 infected in african green monkey Vero cells incubated for 24 hrs measured after 3 days post infection; assay type: functional, organism-based
[15] = Half life in Sprague-Dawley rat at 2.5 mg/kg, iv measured by LC-MS/MS analysis; assay type: ADME, organism-based; conditions: in vivo
[16] = Oral bioavailability in Sprague-Dawley rat at 10 mg/kg measured upto 24 to 48 hrs by LC-MS/MS analysis; assay type: ADME, organism-based; conditions: in vivo, time 24-48 hrs
[17] = Volume of distribution at steady state in CD-1 mouse at 2.5 mg/kg, iv measured for 0.12 to 24 hrs by LC-MS/MS analysis; assay type: ADME, organism-based; conditions: in vivo, time 0.12-24 hrs, read-out: Vdss
[18] = Cmax in CD-1 mouse at 3 mg/kg, po measured for 0.5 to 24 hrs by LC-MS/MS analysis; assay type: ADME, organism-based; parameters: time 0.5-24 hrs, dose 3 mg/kg, route po; conditions: in vivo
[19] = Volume of distribution at steady state in Sprague-Dawley rat at 2.5 mg/kg, iv measured upto 24 hrs by LC-MS/MS analysis; assay type: ADME, organism-based; conditions: in vivo, read-out: Vdss
[20] = Clearance in CD-1 mouse at 2.5 mg/kg, iv measured for 0.12 to 24 hrs by LC-MS/MS analysis; assay type: ADME, organism-based; conditions: in vivo, time 0.12-24 hrs
[21] = Oral bioavailability in CD-1 mouse at 30 mg/kg measured for 0.5 to 24 hrs by LC-MS/MS analysis; assay type: ADME, organism-based; conditions: in vivo, time 0.5-24 hrs
[22] = Half life in CD-1 mouse at 2.5 mg/kg, iv measured by LC-MS/MS analysis; assay type: ADME, organism-based; conditions: in vivo
[23] = AUC last in CD-1 mouse at 10 mg/kg, po measured for 0.5 to 24 hrs by LC-MS/MS analysis; assay type: ADME, organism-based; parameters: dose 10 mg/kg, time 0.5-24 hrs, route po; conditions: in vivo
[24] = Microsomal stability in human liver microsomes assessed as intrinsic clearance preincubated for 5 mins followed by NADPH addition measured upto 60 mins by LC-MS/MS analysis; assay type: ADME, Microsome; conditions: time < 65 min, read-out: CLH
[25] = target: Voltage-gated inwardly rectifying potassium channel KCNH2 (Homo sapiens, UniProt Q12809); experiment: Displacement of [3H]Dofetilide from human ERG; assay type: toxicity
Sequence of Voltage-gated inwardly rectifying potassium channel KCNH2 (Q12809 whole entry): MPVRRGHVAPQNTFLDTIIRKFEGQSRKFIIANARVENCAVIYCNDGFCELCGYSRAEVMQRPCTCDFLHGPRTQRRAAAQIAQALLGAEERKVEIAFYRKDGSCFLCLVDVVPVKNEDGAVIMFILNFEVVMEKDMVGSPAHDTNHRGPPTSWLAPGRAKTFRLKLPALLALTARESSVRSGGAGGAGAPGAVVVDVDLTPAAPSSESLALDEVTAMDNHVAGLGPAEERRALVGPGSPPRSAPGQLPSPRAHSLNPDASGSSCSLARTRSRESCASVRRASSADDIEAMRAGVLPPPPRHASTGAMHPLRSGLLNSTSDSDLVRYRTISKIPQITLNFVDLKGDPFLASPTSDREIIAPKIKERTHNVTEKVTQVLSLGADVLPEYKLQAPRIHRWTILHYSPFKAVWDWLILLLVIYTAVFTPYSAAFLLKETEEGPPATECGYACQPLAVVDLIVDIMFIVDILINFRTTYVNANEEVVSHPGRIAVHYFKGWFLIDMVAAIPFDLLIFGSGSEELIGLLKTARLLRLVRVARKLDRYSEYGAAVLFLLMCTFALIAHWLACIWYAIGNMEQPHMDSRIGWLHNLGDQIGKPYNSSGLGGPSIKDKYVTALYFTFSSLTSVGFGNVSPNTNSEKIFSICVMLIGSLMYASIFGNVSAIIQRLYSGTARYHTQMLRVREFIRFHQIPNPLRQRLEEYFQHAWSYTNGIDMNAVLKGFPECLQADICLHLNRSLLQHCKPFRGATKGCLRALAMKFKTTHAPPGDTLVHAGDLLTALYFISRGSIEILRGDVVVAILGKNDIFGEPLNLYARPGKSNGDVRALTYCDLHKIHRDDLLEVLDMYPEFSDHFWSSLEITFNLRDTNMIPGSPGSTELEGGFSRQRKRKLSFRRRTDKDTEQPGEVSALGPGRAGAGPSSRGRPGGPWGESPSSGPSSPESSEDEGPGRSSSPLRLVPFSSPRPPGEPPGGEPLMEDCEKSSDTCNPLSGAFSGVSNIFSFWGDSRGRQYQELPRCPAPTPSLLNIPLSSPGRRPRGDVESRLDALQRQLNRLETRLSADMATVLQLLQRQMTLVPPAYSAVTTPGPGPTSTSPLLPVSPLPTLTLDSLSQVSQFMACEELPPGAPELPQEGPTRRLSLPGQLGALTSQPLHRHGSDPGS

dengue virus type 2 [26] = experiment: In vivo antiviral activity against DENV-2/RL infected in AG129 mouse assessed as viral load reduction administered at 1 to 30 mg/kg, po bid for 3 days; assay type: functional, organism-based; conditions: dose 1-30 mg/kg, time 3.0 day
[27] = AUC last in CD-1 mouse at 1 mg/kg, po measured for 0.5 to 24 hrs by LC-MS/MS analysis; assay type: ADME, organism-based; parameters: dose 1 mg/kg, time 0.5-24 hrs, route po; conditions: in vivo
[28] = Oral bioavailability in CD-1 mouse at 1 mg/kg measured for 0.5 to 24 hrs by LC-MS/MS analysis; assay type: ADME, organism-based; conditions: in vivo, time 0.5-24 hrs
[29] = Cmax in CD-1 mouse at 1 mg/kg, po measured for 0.5 to 24 hrs by LC-MS/MS analysis; assay type: ADME, organism-based; parameters: dose 1 mg/kg, time 0.5-24 hrs, route po; conditions: in vivo
dengue virus type 2 [30] = experiment: Antiviral activity against DENV-2 16681 infected in african green monkey Vero cells incubated for 24 hrs measured after 3 days post infection; assay type: functional, organism-based; conditions: Dengue virus, 16681, Vero

| SMILES | bioavailability [1] | hepatocyte CLint [2] | Activity (dengue virus type 2 [3]) | AUC(0-t) [4] | microsomal CLint [5] | AUC(0-t) [7] | EC50 (dengue virus type 3) | Cmax [8] | solubility kinetic at 4 h [9] | microsomal CLint [11] | Cmax [12] | bioavailability [13] | clearance [14] | EC50 (dengue virus type 1) | half-life [15] | bioavailability [16] | Vd [17] | Cmax [18] | Vd [19] | clearance [20] | further results |
| --- | --- | --- | --- | --- | --- | --- | --- | --- | --- | --- | --- | --- | --- | --- | --- | --- | --- | --- | --- | --- | --- |
| COc1cc(NC(C(=O)c2c[nH]c3cc(F)ccc23)c2ccc(Cl)cc2OC)cc(OCCO)c1 (single isomer, unassigned; (+)) | 52% | < 1.9 µL/min/1e6 cells | 2 log10/ml | 2430 ng·h/mL | 32 µL/min/mg | 1410 ng·h/mL | 63 nM | 192 ng/mL | 1 µM (≈ 0.499 µg/mL) | 9 µL/min/mg | 1720 ng/mL | 40% | 46.2 mL/min/kg | 8 nM | 384 min | 69% | 2 L/kg | 435 ng/mL | 10.1 L/kg | 16.6 mL/min/kg | Cmax [6]: 5100 ng/mL; AUC(0-t) [10]: 29500 ng·h/mL; EC50 (dengue virus type 4; vero): 240 nM; bioavailability [21]: 85%; half-life [22]: 120 min; AUC(0-t) [23]: 6030 ng·h/mL; microsomal CLint [24]: < 8 µL/min/mg; IC50 [25]: 10 µM |
| COc1cc(NC(C(=O)c2c[nH]c3cc(OC)c(C)cc23)c2ccc(Cl)cc2OC)cc(OCCO)c1 (single isomer, unassigned; (+)) | 76% | < 1.9 µL/min/1e6 cells | 2.9 log10/ml | 8390 ng·h/mL | < 8 µL/min/mg | 4050 ng·h/mL | 26 nM | 365 ng/mL | 0.2 µM (≈ 0.105 µg/mL) | < 8 µL/min/mg | 1760 ng/mL | 54% | 6.8 mL/min/kg | 4 nM | 690 min | 45% | 3.3 L/kg | 345 ng/mL | 6.8 L/kg | 6.3 mL/min/kg | Activity (dengue virus type 2 [26]): Dose-Dependent Effect; AUC(0-t) [27]: 872 ng·h/mL; bioavailability [28]: 35%; Cmax [29]: 83 ng/mL; EC50 (dengue virus type 2 [30]): 1 nM; EC50 (dengue virus type 4; Dengue virus, H241, Vero): 84 nM; half-life [22]: 372 min; AUC(0-t) [23]: 19100 ng·h/mL; microsomal CLint [24]: < 8 µL/min/mg; IC50 [25]: > 10 µM |
